Laboratory results from ChEMBL document CHEMBL4842362, “From virtual screening hits targeting a cryptic pocket in BACE-1 to a nontoxic brain permeable multitarget anti-Alzheimer lead with disease-modifying and cognition-enhancing effects” (Eur J Med Chem, 2021).
Values after ≈ are worked out from the molar mass of the structure shown. Active and inactive are the calls of the source. The rule behind the calls is not given here.

How the values were obtained:
Mus musculus [1] = assay: In vivo inhibition of GSK3 beta in SAMP8 mouse assessed as reduction in tau phosphorylation at Ser 404 residue at 2 mg/kg, po measured after 4 weeks by western blot analysis; assay type: functional, organism-based
Mus musculus [2] = assay: Effect on amyloid pathology in hippocampal tissue of SAMP8 mouse assessed as increase in neprilysin (Nep) gene expression at 2 mg/kg, po measured after 4 weeks by RT-PCR analysis; assay type: functional, organism-based
Mus musculus [3] = assay: Effect on amyloid pathology in hippocampal tissue of SAMP8 mouse assessed as increase in insulin-degrading enzyme (Ide) gene expression at 2 mg/kg, po measured after 4 weeks by RT-PCR analysis; assay type: functional, organism-based
Mus musculus [4] = assay: Effect on amyloid pathology in hippocampal tissue of SAMP8 mouse assessed as decrease in Bace-1 gene expression at 2 mg/kg, po measured after 4 weeks by RT-PCR analysis; assay type: functional, organism-based
Mus musculus [5] = assay: Effect on amyloid pathology in hippocampal tissue of SAMP8 mouse assessed as increase in Adam10 gene expression at 2 mg/kg, po measured after 4 weeks by RT-PCR analysis; assay type: functional, organism-based
Mus musculus [6] = assay: In vivo inhibition of BACE-1 in hippocampal tissue of SAMP8 mouse assessed as increase in sAPP alpha levels at 2 mg/kg, po measured after 4 weeks by western blot analysis; assay type: functional, organism-based; conditions: Hippocampus
Beta-secretase 1 = Beta-secretase 1 (Homo sapiens, UniProt P56817); assay: Inhibition of human recombinant BACE-1 expressed in Escherichia coli using panvera peptide as a substrate incubated for 1 hr by fluorescence analysis
Beta-secretase 1, sequence (P56817 whole entry): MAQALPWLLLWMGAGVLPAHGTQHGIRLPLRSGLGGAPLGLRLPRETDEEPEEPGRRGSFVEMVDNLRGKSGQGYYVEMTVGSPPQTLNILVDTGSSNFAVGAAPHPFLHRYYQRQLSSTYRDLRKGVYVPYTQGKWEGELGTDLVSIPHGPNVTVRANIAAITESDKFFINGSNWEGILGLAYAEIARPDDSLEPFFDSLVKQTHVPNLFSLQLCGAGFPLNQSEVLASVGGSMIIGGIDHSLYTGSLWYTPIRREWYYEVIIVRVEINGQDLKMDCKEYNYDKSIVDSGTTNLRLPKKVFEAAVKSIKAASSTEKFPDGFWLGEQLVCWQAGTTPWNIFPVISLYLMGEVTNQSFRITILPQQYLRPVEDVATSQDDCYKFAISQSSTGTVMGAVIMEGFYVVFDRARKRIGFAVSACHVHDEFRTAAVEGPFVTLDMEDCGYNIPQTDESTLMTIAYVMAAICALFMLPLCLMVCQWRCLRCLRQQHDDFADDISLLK

Acetylcholinesterase [7] = target: T1, Acetylcholinesterase (Homo sapiens, UniProt P22303); assay: Potency index, ratio of rhein-huprine hybrid IC50 to test compound IC50 for inhibition of human recombinant AChE using acetylthiocholine iodide as a substrate preincubated for 20 mins followed by substrate addition by spectrophotometric analysis
T1 sequence (P22303 whole entry): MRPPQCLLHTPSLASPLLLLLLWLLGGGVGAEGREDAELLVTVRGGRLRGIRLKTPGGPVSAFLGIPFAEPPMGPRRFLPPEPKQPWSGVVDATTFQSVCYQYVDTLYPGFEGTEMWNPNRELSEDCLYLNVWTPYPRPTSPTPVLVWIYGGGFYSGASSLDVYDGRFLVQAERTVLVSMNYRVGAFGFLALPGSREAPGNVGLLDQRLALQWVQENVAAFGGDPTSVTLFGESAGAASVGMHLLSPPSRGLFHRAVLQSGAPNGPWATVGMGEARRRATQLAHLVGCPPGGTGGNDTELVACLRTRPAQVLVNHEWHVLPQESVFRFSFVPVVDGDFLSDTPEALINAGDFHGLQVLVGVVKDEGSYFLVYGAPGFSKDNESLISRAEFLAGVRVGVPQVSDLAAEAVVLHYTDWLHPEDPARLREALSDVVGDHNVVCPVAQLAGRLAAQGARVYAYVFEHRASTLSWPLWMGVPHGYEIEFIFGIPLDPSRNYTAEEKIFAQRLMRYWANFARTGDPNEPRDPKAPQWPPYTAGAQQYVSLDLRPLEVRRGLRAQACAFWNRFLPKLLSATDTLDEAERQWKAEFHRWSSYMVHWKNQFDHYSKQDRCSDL

Acetylcholinesterase [8] = target: T1, Acetylcholinesterase; assay: Potency index, ratio of donepezil IC50 to test compound IC50 for inhibition of human recombinant AChE using acetylthiocholine iodide as a substrate preincubated for 20 mins followed by substrate addition by spectrophotometric analysis
Cholinesterase [9] = target: T2, Cholinesterase (Homo sapiens, UniProt P06276); assay: Potency index, ratio of rhein-huprine hybrid IC50 to test compound IC50 for inhibition of human serum BChE using butyrylthiocholine iodide as a substrate preincubated for 20 mins followed by substrate addition by spectrophotometric analysis; assay type: cell-free
T2 sequence (P06276 whole entry): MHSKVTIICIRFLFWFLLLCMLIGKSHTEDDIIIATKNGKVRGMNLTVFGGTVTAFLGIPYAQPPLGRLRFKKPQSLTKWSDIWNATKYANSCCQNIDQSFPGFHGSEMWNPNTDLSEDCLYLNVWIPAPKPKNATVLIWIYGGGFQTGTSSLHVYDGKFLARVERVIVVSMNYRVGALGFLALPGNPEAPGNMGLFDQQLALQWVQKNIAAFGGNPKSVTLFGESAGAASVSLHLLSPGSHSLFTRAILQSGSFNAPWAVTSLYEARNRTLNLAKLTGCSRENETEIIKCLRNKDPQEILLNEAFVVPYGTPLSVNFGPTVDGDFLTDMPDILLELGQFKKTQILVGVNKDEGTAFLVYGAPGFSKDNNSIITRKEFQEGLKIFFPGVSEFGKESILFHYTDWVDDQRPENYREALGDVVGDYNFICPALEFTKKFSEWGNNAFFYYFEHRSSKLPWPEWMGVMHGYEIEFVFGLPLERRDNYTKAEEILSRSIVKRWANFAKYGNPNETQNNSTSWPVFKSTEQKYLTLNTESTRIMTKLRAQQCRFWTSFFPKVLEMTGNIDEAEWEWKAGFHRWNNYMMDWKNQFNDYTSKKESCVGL

Cholinesterase [10] = target: T2, Cholinesterase; assay: Potency index, ratio of huprine-Y IC50 to test compound IC50 for inhibition of human serum BChE using butyrylthiocholine iodide as a substrate preincubated for 20 mins followed by substrate addition by spectrophotometric analysis; assay type: cell-free
Cholinesterase [11] = target: T2, Cholinesterase; assay: Potency index, ratio of donepezil IC50 to test compound IC50 for inhibition of human serum BChE using butyrylthiocholine iodide as a substrate preincubated for 20 mins followed by substrate addition by spectrophotometric analysis; assay type: cell-free
[12] = target: Amyloid-beta precursor protein (Homo sapiens) (UniProt P05067); assay: Inhibition of amyloid beta (1 to 42) (unknown origin) aggregation in Escherichia coli BL21 (DE3) at 10 uM incubated overnight by thioflavin S based fluorescence analysis relative to control
Amyloid-beta precursor protein (Homo sapiens), sequence (P05067 whole entry): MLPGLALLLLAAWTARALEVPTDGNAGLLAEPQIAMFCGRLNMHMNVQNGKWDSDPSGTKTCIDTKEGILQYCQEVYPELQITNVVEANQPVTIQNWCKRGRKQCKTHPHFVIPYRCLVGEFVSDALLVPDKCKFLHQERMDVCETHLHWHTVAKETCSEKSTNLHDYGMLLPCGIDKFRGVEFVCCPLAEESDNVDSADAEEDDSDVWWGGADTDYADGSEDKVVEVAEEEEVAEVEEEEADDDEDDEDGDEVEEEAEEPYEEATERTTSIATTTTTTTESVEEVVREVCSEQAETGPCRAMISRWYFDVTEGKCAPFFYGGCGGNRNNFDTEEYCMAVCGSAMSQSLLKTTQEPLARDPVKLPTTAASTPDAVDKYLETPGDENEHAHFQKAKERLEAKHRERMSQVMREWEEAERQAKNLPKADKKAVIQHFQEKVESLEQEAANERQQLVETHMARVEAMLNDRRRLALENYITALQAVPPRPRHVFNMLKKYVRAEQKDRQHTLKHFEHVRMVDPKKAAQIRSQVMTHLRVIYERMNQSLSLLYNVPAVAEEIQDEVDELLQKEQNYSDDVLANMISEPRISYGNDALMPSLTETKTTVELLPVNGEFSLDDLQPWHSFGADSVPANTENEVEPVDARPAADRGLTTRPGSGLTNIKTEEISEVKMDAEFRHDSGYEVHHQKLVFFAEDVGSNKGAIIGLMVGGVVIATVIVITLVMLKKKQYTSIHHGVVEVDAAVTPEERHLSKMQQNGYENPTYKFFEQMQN

[13] = target: Microtubule-associated protein tau (Homo sapiens) (UniProt P10636); assay: Inhibition of tau aggregation (unknown origin) in Escherichia coli BL21 (DE3) at 10 uM incubated overnight by thioflavin S based fluorescence analysis relative to control
Microtubule-associated protein tau (Homo sapiens), sequence (P10636 whole entry): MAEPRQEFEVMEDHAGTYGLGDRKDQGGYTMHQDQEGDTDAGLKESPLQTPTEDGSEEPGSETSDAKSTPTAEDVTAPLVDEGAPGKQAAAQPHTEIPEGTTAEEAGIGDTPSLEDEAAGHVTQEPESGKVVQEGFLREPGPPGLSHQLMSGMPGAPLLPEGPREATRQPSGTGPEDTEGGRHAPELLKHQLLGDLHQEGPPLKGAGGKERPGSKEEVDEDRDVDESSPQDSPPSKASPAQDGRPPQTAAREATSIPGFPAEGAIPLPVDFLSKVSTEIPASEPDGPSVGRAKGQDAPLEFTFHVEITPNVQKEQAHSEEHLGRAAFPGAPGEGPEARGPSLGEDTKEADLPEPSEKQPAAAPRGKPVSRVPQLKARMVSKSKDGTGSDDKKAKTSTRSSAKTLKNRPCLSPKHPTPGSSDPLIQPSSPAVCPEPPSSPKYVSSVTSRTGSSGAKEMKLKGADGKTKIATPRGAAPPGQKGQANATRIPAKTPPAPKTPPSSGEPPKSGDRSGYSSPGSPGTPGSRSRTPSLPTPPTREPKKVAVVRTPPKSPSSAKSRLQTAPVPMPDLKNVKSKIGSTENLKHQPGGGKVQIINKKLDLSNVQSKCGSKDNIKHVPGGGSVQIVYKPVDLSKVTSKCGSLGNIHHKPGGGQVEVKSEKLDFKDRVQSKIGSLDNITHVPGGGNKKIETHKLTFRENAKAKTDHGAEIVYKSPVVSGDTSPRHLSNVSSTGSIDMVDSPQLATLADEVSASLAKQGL

[14] = Antioxidant activity assessed as free radical scavenging activity at 500 uM incubated for 30 mins under dark condition by DPPH assay; assay type: functional
HT-22 = assay: Neuroprotective activity against glutamate induced neuronal death in mouse HT-22 cells assessed as increase in cell viability at 1 to 25 uM by MTT assay; assay type: functional, cell-based; conditions: dose 1-25 µM
[15] = Neurotoxicity in mouse HT-22 cells assessed as decrease in cell viability at up to 25 uM by MTT assay; assay type: cell-based
[16] = Acute toxicity in zebra fish embryos assessed as lethality measured every 24 hrs for 72 hrs; design: species or system Danio rerio; conditions: zebrafish
[17] = Permeability of the compound in PBS/EtOH by PAMPA-BBB assay; assay type: ADME; conditions: read-out: permeability
[18] = Kinetic solubility of the compound in DMSO/PBS buffer measured after 2 hrs by nephalometric analysis; assay type: physicochemical; conditions: DMSO/PBS buffer, read-out: Kinetic_solubility
[19] = Toxicity in SAMP8 mouse assessed as mortality at 2 mg/kg, po for 4 weeks; assay type: organism-based; conditions: in vivo, 672 h
[20] = Toxicity in SAMP8 mouse assessed as toxic effects at 2 mg/kg, po for 4 weeks; assay type: organism-based; conditions: in vivo, 672 h
Mus musculus [21] = assay: Cognitive enhancing effect in SAMP8 mouse assessed as improvement of short term retrieval by measuring discrimination index at 2 mg/kg, po administered for 4 weeks followed by 10 mins acquisition trail and measured after 2 hrs by novel object recognition test; assay type: functional, organism-based
Mus musculus [22] = assay: Cognitive enhancing effect in SAMP8 mouse assessed as improvement of long term retrieval by measuring discrimination index at 2 mg/kg, po administered for 4 weeks followed by 10 mins acquisition trail and measured after 24 hrs by novel object recognition test; assay type: functional, organism-based
Mus musculus [23] = assay: Cognitive enhancing effect in SAMP8 mouse assessed as reversal of spatial memory impairment by measuring discrimination index at 2 mg/kg, po administered for 4 weeks by object location test; assay type: functional, organism-based
Mus musculus [24] = assay: In vivo inhibition of BACE-1 in hippocampal tissue of SAMP8 mouse assessed as reduction in sAPPbeta levels at 2 mg/kg, po measured after 4 weeks by Western blot analysis; assay type: functional, organism-based; conditions: Hippocampus
Mus musculus [25] = assay: Modulation of oxidative stress in SAMP8 mouse assessed as increase in heme oxygenase 1 (Hmox1) gene expression in hippocampus tissue at 2 mg/kg, po measured after 4 weeks by RT-PCR analysis; assay type: functional, organism-based
Mus musculus [26] = assay: Modulation of oxidative stress in SAMP8 mouse assessed as increase in cox-2 gene expression in hippocampus tissue at 2 mg/kg, po measured after 4 weeks by RT-PCR analysis; assay type: functional, organism-based
Mus musculus [27] = assay: Effect on neuroinflammation in SAMP8 mouse assessed as decrease in IL-1 beta gene expression hippocampus tissue at 2 mg/kg, po measured after 4 weeks by RT-PCR analysis; assay type: functional, organism-based
Mus musculus [28] = assay: Effect on neuroinflammation in SAMP8 mouse assessed as decrease in IL-6 gene expression hippocampus tissue at 2 mg/kg, po measured after 4 weeks by RT-PCR analysis; assay type: functional, organism-based
Mus musculus [29] = assay: Effect on neuroinflammation in SAMP8 mouse assessed as decrease in TNF-alpha gene expression hippocampus tissue at 2 mg/kg, po measured after 4 weeks by RT-PCR analysis; assay type: functional, organism-based
Mus musculus [30] = assay: Effect on neuroinflammation in SAMP8 mouse assessed as reduction in Cxcl10 gene expression hippocampus tissue at 2 mg/kg, po measured after 4 weeks by RT-PCR analysis; assay type: functional, organism-based
Mus musculus [31] = assay: Effect on synaptic plasticity in SAMP8 mouse assessed as increase in PSD95 protein levels in hippocampus tissue at 2 mg/kg, po measured after 4 weeks by western blot analysis; assay type: functional, organism-based
Mus musculus [32] = assay: Effect on synaptic plasticity in SAMP8 mouse assessed as increase in SYN protein levels in hippocampus tissue at 2 mg/kg, po measured after 4 weeks by western blot analysis; assay type: functional, organism-based
Acetylcholinesterase [33] = target: T1, Acetylcholinesterase
Description: Inhibition of human recombinant AChE using acetylthiocholine iodide as a substrate preincubated for 20 mins followed by substrate addition by spectrophotometric analysis

Cholinesterase [34] = target: T2, Cholinesterase
Description: Inhibition of human serum BChE using butyrylthiocholine iodide as a substrate preincubated for 20 mins followed by substrate addition by spectrophotometric analysis

For `CC1=CC2Cc3nc4cc(Cl)ccc4c(NCCCCCCCCCNC(=O)c4cc(O)cc(O)c4)c3C(C1)C2` (stereo unspecified), the inhibition (Mus musculus [1]) was “Active”, the Activity (Mus musculus [2]) was “Active” and the Activity (Mus musculus [3]) was “inactive”. The Activity (Mus musculus [4]) was “Active”, the Activity (Mus musculus [5]) was “Active” and the Activity (Mus musculus [6]) was “Active”. The IC50 (Beta-secretase 1) was 2710 nM, the Ratio IC50 (Acetylcholinesterase [7]) was < 9 and the Ratio IC50 (Acetylcholinesterase [8]) was < 65. For the same compound, the Ratio IC50 (Cholinesterase [9]) was 7, the Ratio IC50 (Cholinesterase [10]) was 2 and the Ratio IC50 (Cholinesterase [11]) was 79. For the same compound, the inhibition [12] was 49.5%, the inhibition [13] was 65.8% and the Activity [14] was “inactive”. For the same compound, the Activity (HT-22) was “inactive”, the Activity [15] was “Non-Toxic” and the LC50 at 72 h [16] was > 100000 nM. For the same compound, the Papp [17] was 9.4 ×10⁻⁶ cm/s, the solubility kinetic at 2 h [18] was 10.8 µg/mL (≈ 19.2 µM) and the Activity [19] was “Non-Toxic”. The Activity [20] was “Non-Toxic”, the Activity (Mus musculus [21]) was “Active” and the Activity (Mus musculus [22]) was “Active”. For the same compound, the Activity (Mus musculus [23]) was “Active”, the Activity (Mus musculus [24]) was “Active” and the Activity (Mus musculus [25]) was “Active”. The Activity (Mus musculus [26]) was “inactive”, the Activity (Mus musculus [27]) was “Active” and the Activity (Mus musculus [28]) was “Active”. The Activity (Mus musculus [29]) was “Active”, the Activity (Mus musculus [30]) was “Active” and the Activity (Mus musculus [31]) was “Active”. For the same compound, the Activity (Mus musculus [32]) was “Active”, the IC50 (Acetylcholinesterase [33]) was 2.57 nM and the IC50 (Cholinesterase [34]) was 43 nM.
